This is an account of results in patent US9701685B2, “Spiropyrrolidines as MDM2 inhibitors” (HUDSON BIOPHARMA INC., priority 2014, dated 2017).

Experiment [1] concerns the target GST-tag full length MDM2 (Homo sapiens (Human), UniProt Q00987). As to the kind of experiment: MDM2-p53 TR-FRET Binding Assays. As to conditions: MDM2 / biotin p53 peptide. The source says:
MDM2-p53 TR-FRET Binding Assays
Examples are listed in the following.

The subject of experiment [2] is SJSA-1. As to the kind of experiment: Cell proliferation inhibition (CCK-8) against SJSA-1. The class given is cell-based. The settings on record: Homo sapiens, SJSA-1, 120 h, SJSA-1 human osteosarcoma cells, 5 days. Here is the method: Cellular data of selected compounds against SW480 and SJSA-1 was conducted according to the following protocol.
Cells in the logarithmic growth phase were seeded into 96-well plates (Corning, 3599; 180 μL/well; 3000 cells/well for both SW480 and SJSA-1 cell lines) and cultured in an incubator (Thermo, 3111) for 24 h. Cells were then treated in triplicate by adding 20 μL/well solution containing different concentrations of the tested compounds in 5% CO2 at 37° C. for 5 days. After that, cells were treated for additional 4 h by adding 10 μL/well Cell Counting Kit-8 (CCK-8; DojinDo, CK04) solution. Finally, the absorbance was read at 450 nm with a microplate reader spectra-MAX190 (Molecular Devices, Sunnyvale, Calif.). The IC50 value was determined with SofeMax Pro, a software equipped in this reader. The cell proliferation inhibition rate was calculated as: proliferation inhibition (%)=[1-(A450 treated/A450 control)]×100%.
All the tested compounds could be dissolved in DMSO at 10^−2 M (as stock solution). […] The compounds were diluted at 9 3-fold serial concentrations beginning at the initial concentration of 10 μM (i.e., the highest final concentration to treat the cells). The detailed drug dilution protocol is: Add 5 μL stock solution (10^−2 M) into 495 μL medium, transfer 125 μL of the resulting solution (100 μM) into 250 μL medium, and repeat this till the 9th resulting concentration of 15.2 nM. Pipet 20 μL of each drug dilution into cell plates.

GST-tag full length MDM2, sequence (Q00987 whole entry): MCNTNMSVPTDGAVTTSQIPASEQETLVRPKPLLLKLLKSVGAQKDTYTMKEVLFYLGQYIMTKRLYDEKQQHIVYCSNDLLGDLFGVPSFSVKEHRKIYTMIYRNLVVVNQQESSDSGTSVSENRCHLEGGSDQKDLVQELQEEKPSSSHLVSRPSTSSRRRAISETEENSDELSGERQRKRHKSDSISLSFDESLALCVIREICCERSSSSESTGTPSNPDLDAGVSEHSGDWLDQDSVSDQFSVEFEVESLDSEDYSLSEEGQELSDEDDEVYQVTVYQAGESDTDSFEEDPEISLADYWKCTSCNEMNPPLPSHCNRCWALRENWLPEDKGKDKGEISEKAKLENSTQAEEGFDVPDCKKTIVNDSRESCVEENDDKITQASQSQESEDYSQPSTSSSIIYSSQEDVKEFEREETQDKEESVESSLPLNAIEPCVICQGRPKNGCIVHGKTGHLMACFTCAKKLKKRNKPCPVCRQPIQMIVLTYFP

As a reminder, the IC50 is the concentration needed to halve the response being measured. In the case of `COc1cc(C(N)=O)ccc1NC(=O)[C@@H]1N[C@@H](C[C@H](C)C(F)(F)F)[C@@]2(C(=O)Nc3cc(Cl)ccc32)[C@H]1c1cccc(Cl)c1F` [Example 66, (2′R,3R,3′S,5′S)-N-(4-carbamoyl-2-methoxy-phenyl)-6-chloro-3′-(3-chloro-2-fluoro-phenyl)-2-oxo-5′-[(2S)-3,3,3-trifluoro-2-methyl-propyl]spiro[indoline-3,4′-pyrrolidine]-2′-carboxamide], the IC50 in experiment [1] was at most 3.6 nM; in experiment [2] it was at most 20 nM.

With `COc1cc(C(=O)O)ccc1NC(=O)[C@@H]1N[C@@H](CC2(CF)CC2)C2(C(=O)Nc3cc(Cl)ccc32)[C@H]1c1cccc(Cl)c1F` (stereo partly shown) [Example 74, 4-{[6-chloro-4′-(3-chloro-2-fluoro-phenyl)-2′-(1-fluoromethyl-cyclopropylmethyl)-2-oxo-1,2-dihydro-spiro[indole-3,3′-pyrrolidin]e-5′-carbonyl]-amino}-3-methoxy-benzoic acid], the IC50 was at most 7.2 nM in experiment [1] and at most 20 nM in experiment [2].

As for `COc1cc(C(N)=O)ccc1NC(=O)[C@@H]1N[C@@H](CC2(CF)CC2)C2(C(=O)Nc3cc(Cl)ccc32)[C@H]1c1cccc(Cl)c1F` (stereo partly shown) [Example 75, 6-chloro-4′-(3-chloro-2-fluoro-phenyl)-2′-(1-fluoromethyl-cyclopropylmethyl)-2-oxo-1,2-dihydro-spiro[indole-3,3′-pyrrolidine]-5-carboxylic acid (4-carbamoyl-2-methoxy-phenyl)-amide], the IC50 in experiment [1] was at most 7.2 nM; in experiment [2], at most 20 nM.

On to `COc1cc(C(=O)O)ccc1NC(=O)[C@@H]1N[C@@H](CC2(CF)CC2)[C@@]2(C(=O)Nc3cc(Cl)ccc32)[C@H]1c1cccc(Cl)c1F` [Example 76, 4-[[(2′R,3R,3′S,5′S)-6-chloro-3′-(3-chloro-2-fluoro-phenyl)-5′-[[1-(fluoromethyl)cyclopropyl]methyl]-2-oxo-spiro[indoline-3,4′-pyrrolidine]-2′-carbonyl]amino]-3-methoxy-benzoic acid], for which the IC50 in experiment [1] was at most 7.2 nM; in experiment [2], at most 20 nM.

In the case of `COc1cc(C(N)=O)ccc1NC(=O)[C@@H]1N[C@@H](CC2(CF)CC2)[C@@]2(C(=O)Nc3cc(Cl)ccc32)[C@H]1c1cccc(Cl)c1F` [Example 77, (2′R,3R,3′S,5′S)-N-(4-carbamoyl-2-methoxy-phenyl)-6-chloro-3′-(3-chloro-2-fluoro-phenyl)-5′-[[1-(fluoromethyl)cyclopropyl]methyl]-2-oxo-spiro[indoline-3,4′-pyrrolidine]-2′-carboxamide], the IC50 was at most 7.2 nM in experiment [1] and at most 20 nM in experiment [2].
